In ChEMBL document CHEMBL3885881, “DrugMatrix”:

Species: Rattus norvegicus
Assay: DrugMatrix - Regimen: Daily Repeat
Assay type: toxicity, organism-based, Sprague-Dawley
Design: regimen Daily Repeat, gender Male, age 6-8 weeks
Conditions: in vivo, po, route oral GAVAGE, vehicle 100 % WATER; for ABSOLUTE BASOPHIL / ABSOLUTE EOSINOPHIL / ABSOLUTE LYMPHOCYTE / ABSOLUTE MONOCYTE / ABSOLUTE SEGMENTED NEUTROPHIL / BASOPHIL / EOSINOPHIL / ERYTHROCYTE COUNT / HEMATOCRIT / HEMOGLOBIN / LEUKOCYTE COUNT / LYMPHOCYTE / MEAN CORPUSCULAR HEMOGLOBIN / MEAN CORPUSCULAR HEMOGLOBIN CONCENTRATION / MEAN CORPUSCULAR VOLUME / MONOCYTE / NEUTROPHIL / NUCLEATED RED BLOOD CELLS / PLATELET COUNT: tissue Blood; for ALANINE AMINOTRANSFERASE / ALBUMIN / ALKALINE PHOSPHATASE / ASPARTATE AMINOTRANSFERASE / BLOOD UREA NITROGEN / CARBON DIOXIDE / CHLORIDE / CHOLESTEROL / CREATINE PHOSPHOKINASE / CREATININE / GLUCOSE / LACTATE DEHYDROGENASE / LIPASE / PHOSPHORUS / SODIUM / TOTAL BILIRUBIN / TOTAL PROTEIN / URIC ACID: tissue Plasma
[1] = 0 mg/kg, 72 h, dose level Control, time 3 day
[2] = 0 mg/kg, 120 h, dose level Control, time 5 day
[3] = 100 mg/kg, 72 h, dose level Low, time 3 day

With `CCN(CC)C(=S)SSC(=S)N(CC)CC` the “ABSOLUTE BASOPHIL” value [1] was 0 CELLS/uL, the “ABSOLUTE EOSINOPHIL” value [1] was 58.83 CELLS/uL and the “ABSOLUTE LYMPHOCYTE” value [1] was 11823.5 CELLS/uL. The “ABSOLUTE MONOCYTE” value [1] was 169 CELLS/uL, the “ABSOLUTE SEGMENTED NEUTROPHIL” value [1] was 815.33 CELLS/uL and the BASOPHIL [1] was 0%. For the same compound, the EOSINOPHIL [1] was 0.5%, the “ERYTHROCYTE COUNT” value [1] was 5.52 x10E6/uL and the HEMATOCRIT [1] was 35.77%. The HEMOGLOBIN [1] was 14.28 G/DL, the “LEUKOCYTE COUNT” value [1] was 12.87 x10E3/uL and the LYMPHOCYTE [1] was 91.67%. The “MEAN CORPUSCULAR HEMOGLOBIN” value [1] was 25.92 pg, the “MEAN CORPUSCULAR HEMOGLOBIN CONCENTRATION” value [1] was 39.95 G/DL and the “MEAN CORPUSCULAR VOLUME” value [1] was 64.85 fL. For the same compound, the MONOCYTE [1] was 1.33%, the NEUTROPHIL [1] was 6.5% and the “NUCLEATED RED BLOOD CELLS” value [1] was 0 /100WBC. For the same compound, the “PLATELET COUNT” value [1] was 1246.17 x10E3/uL, the “ALANINE AMINOTRANSFERASE” value [1] was 66 u/L and the ALBUMIN [1] was 4.25 G/DL. For the same compound, the “ALKALINE PHOSPHATASE” value [1] was 416 u/L, the “ASPARTATE AMINOTRANSFERASE” value [1] was 106.17 u/L and the “BLOOD UREA NITROGEN” value [1] was 12.67 mg/dL. For the same compound, the “CARBON DIOXIDE” value [1] was 31.83 mmol/L, the CHLORIDE [1] was 102.5 MEQ/L and the CHOLESTEROL [1] was 69 mg/dL. For the same compound, the “CREATINE PHOSPHOKINASE” value [1] was 601.83 u/L, the CREATININE [1] was 0.18 mg/dL and the GLUCOSE [1] was 154.5 mg/dL. The “LACTATE DEHYDROGENASE” value [1] was 301.83 u/L, the LIPASE [1] was 11.17 u/L and the PHOSPHORUS [1] was 12.08 mg/dL. The SODIUM [1] was 145.2 MEQ/L, the “TOTAL BILIRUBIN” value [1] was 0.17 mg/dL and the “TOTAL PROTEIN” value [1] was 6.1 G/DL. The “URIC ACID” value [1] was 1.57 mg/dL, the “ABSOLUTE BASOPHIL” value [2] was 0 CELLS/uL and the “ABSOLUTE EOSINOPHIL” value [2] was 19.33 CELLS/uL. The “ABSOLUTE LYMPHOCYTE” value [2] was 12577.83 CELLS/uL, the “ABSOLUTE MONOCYTE” value [2] was 106.33 CELLS/uL and the “ABSOLUTE SEGMENTED NEUTROPHIL” value [2] was 896.5 CELLS/uL. The BASOPHIL [2] was 0%, the EOSINOPHIL [2] was 0.17% and the “ERYTHROCYTE COUNT” value [2] was 5.84 x10E6/uL. The HEMATOCRIT [2] was 36.88%, the HEMOGLOBIN [2] was 14.48 G/DL and the “LEUKOCYTE COUNT” value [2] was 13.6 x10E3/uL. The LYMPHOCYTE [2] was 92.17%, the “MEAN CORPUSCULAR HEMOGLOBIN” value [2] was 24.85 pg and the “MEAN CORPUSCULAR HEMOGLOBIN CONCENTRATION” value [2] was 39.3 G/DL. The “MEAN CORPUSCULAR VOLUME” value [2] was 63.23 fL, the MONOCYTE [2] was 0.83% and the NEUTROPHIL [2] was 6.83%. The “NUCLEATED RED BLOOD CELLS” value [2] was 0 /100WBC, the “PLATELET COUNT” value [2] was 1223.5 x10E3/uL and the “ALANINE AMINOTRANSFERASE” value [2] was 55.33 u/L. The ALBUMIN [2] was 4.08 G/DL, the “ALKALINE PHOSPHATASE” value [2] was 355.5 u/L and the “ASPARTATE AMINOTRANSFERASE” value [2] was 87.67 u/L. The “BLOOD UREA NITROGEN” value [2] was 15.33 mg/dL, the “CARBON DIOXIDE” value [2] was 33.83 mmol/L and the CHLORIDE [2] was 99.67 MEQ/L. For the same compound, the CHOLESTEROL [2] was 72.17 mg/dL, the “CREATINE PHOSPHOKINASE” value [2] was 268.33 u/L and the CREATININE [2] was 0.15 mg/dL. The GLUCOSE [2] was 152.5 mg/dL, the “LACTATE DEHYDROGENASE” value [2] was 212.67 u/L and the LIPASE [2] was 10.83 u/L. The PHOSPHORUS [2] was 11.65 mg/dL, the SODIUM [2] was 142.43 MEQ/L and the “TOTAL BILIRUBIN” value [2] was 0.23 mg/dL. The “TOTAL PROTEIN” value [2] was 6.07 G/DL, the “URIC ACID” value [2] was 1.7 mg/dL and the “ABSOLUTE BASOPHIL” value [3] was 0 CELLS/uL. For the same compound, the “ABSOLUTE EOSINOPHIL” value [3] was 157.33 CELLS/uL, the “ABSOLUTE LYMPHOCYTE” value [3] was 16865.67 CELLS/uL and the “ABSOLUTE MONOCYTE” value [3] was 329 CELLS/uL. For the same compound, the “ABSOLUTE SEGMENTED NEUTROPHIL” value [3] was 2381.33 CELLS/uL, the BASOPHIL [3] was 0% and the EOSINOPHIL [3] was 0.67%. For the same compound, the “ERYTHROCYTE COUNT” value [3] was 5.56 x10E6/uL, the HEMATOCRIT [3] was 35.37% and the HEMOGLOBIN [3] was 14.23 G/DL. For the same compound, the “LEUKOCYTE COUNT” value [3] was 19.73 x10E3/uL, the LYMPHOCYTE [3] was 85.67% and the “MEAN CORPUSCULAR HEMOGLOBIN” value [3] was 25.63 pg. For the same compound, the “MEAN CORPUSCULAR HEMOGLOBIN CONCENTRATION” value [3] was 40.27 G/DL, the “MEAN CORPUSCULAR VOLUME” value [3] was 63.63 fL and the MONOCYTE [3] was 1.67%. For the same compound, the NEUTROPHIL [3] was 12%, the “NUCLEATED RED BLOOD CELLS” value [3] was 0 /100WBC and the “PLATELET COUNT” value [3] was 1201.33 x10E3/uL. For the same compound, the “ALANINE AMINOTRANSFERASE” value [3] was 56 u/L, the ALBUMIN [3] was 3.87 G/DL and the “ALKALINE PHOSPHATASE” value [3] was 264.33 u/L. For the same compound, the “ASPARTATE AMINOTRANSFERASE” value [3] was 73.33 u/L, the “BLOOD UREA NITROGEN” value [3] was 11.67 mg/dL and the “CARBON DIOXIDE” value [3] was 31.67 mmol/L. The CHLORIDE [3] was 102.33 MEQ/L, the CHOLESTEROL [3] was 84.33 mg/dL and the “CREATINE PHOSPHOKINASE” value [3] was 223.33 u/L. The CREATININE [3] was 0.28 mg/dL, the GLUCOSE [3] was 140.67 mg/dL and the “LACTATE DEHYDROGENASE” value [3] was 124 u/L. It also gave an LIPASE [3] of 14.33 u/L, a PHOSPHORUS [3] of 11.63 mg/dL and an SODIUM [3] of 144.57 MEQ/L. The “TOTAL BILIRUBIN” value [3] was 0.1 mg/dL, the “TOTAL PROTEIN” value [3] was 5.7 G/DL and the “URIC ACID” value [3] was 1.23 mg/dL.
